Non-standard residues stand in square brackets, D forms with d. Residues, ends and D or L forms follow the SMILES beside them. *: point of attachment. dNMe1Nal = CN[C@H](Cc1cccc2ccccc12)C(=O)O; dPhe(4-Cl) = N[C@H](Cc1ccc(Cl)cc1)C(=O)O; d1Nal = N[C@H](Cc1cccc2ccccc12)C(=O)O; d2Nal = N[C@H](Cc1ccc2ccccc2c1)C(=O)O; dLys(iPr) = CC(C)NCCCC[C@@H](N)C(=O)O; d(hCit) = NC(=O)NCCCC[C@@H](N)C(=O)O; Lys(iPr) = CC(C)NCCCC[C@H](N)C(=O)O; NMeY = CN[C@@H](Cc1ccc(O)cc1)C(=O)O; dBta = N[C@H](Cc1csc2ccccc12)C(=O)O; NMeF = CN[C@@H](Cc1ccccc1)C(=O)O; d3Pal = N[C@H](Cc1cccnc1)C(=O)O; Cha = N[C@@H](CC1CCCCC1)C(=O)O; d2Thi = N[C@H](Cc1cccs1)C(=O)O; NMeL = CN[C@@H](CC(C)C)C(=O)O; pGlu = O=C1CC[C@@H](C(=O)O)N1; Nicotinoyl = O=C(c1cccnc1)*; Sar = CNCC(=O)O; For = O=C*

The target of the assay is T1, LHRH receptors (Rattus norvegicus, UniProt P30969).
T1 sequence (P30969 1-327): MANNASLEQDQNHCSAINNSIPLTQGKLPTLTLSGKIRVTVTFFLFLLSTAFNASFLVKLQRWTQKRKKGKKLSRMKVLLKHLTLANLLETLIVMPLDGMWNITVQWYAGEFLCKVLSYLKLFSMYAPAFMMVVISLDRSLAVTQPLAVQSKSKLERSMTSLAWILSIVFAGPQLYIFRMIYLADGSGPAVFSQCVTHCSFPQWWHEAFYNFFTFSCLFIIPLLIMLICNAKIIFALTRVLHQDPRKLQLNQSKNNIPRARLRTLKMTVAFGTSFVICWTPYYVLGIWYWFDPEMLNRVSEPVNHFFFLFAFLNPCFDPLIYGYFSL
In words: Radioligand receptor binding assay, rat pituitary membranes. The conditions noted are these: radioiodinated [D-Leu6-des Gly10]-LHRH ethyl amide 50 pM, 2 hours at 4° C., read-out: Receptor Binding pkI (converted). The method, then: The radioligand (50 pM), receptors, and compounds to be tested are coincubated for 2 hours at 4° C. Bound ligand is separated from free ligand via centrifugation and aspiration.
Regarding `CC(=O)N[C@H](Cc1ccc(Cl)cc1)C(=O)N[C@H](Cc1ccc(Cl)cc1)C(=O)N[C@H](Cc1csc2ccccc12)C(=O)N[C@@H](CO)C(=O)N(C)[C@@H](Cc1ccc(O)cc1)C(=O)N[C@H](CCCCN)C(=O)N[C@@H](CC(C)C)C(=O)N[C@@H](CCCN=C(N)N)C(=O)N1CCC[C@H]1C(=O)N[C@H](C)C(N)=O` [Ex. 54, N-Ac-D-4-Cl-Phe-D-4-Cl-Phe-D-3-Bal-Ser-N-Me-Tyr-D-Lys-Leu-Arg-Pro-D-AlaNH2] (Ac-[dPhe(4-Cl)][dPhe(4-Cl)][dBta]S[NMeY][dK]LRP[dA]-NH2), the Ki was 0.0339 nM.

As to `CC(=O)N[C@H](Cc1ccc(Cl)cc1)C(=O)N[C@H](Cc1ccc(Cl)cc1)C(=O)N[C@H](Cc1csc2ccccc12)C(=O)N[C@@H](CO)C(=O)N(C)[C@@H](Cc1ccc(O)cc1)C(=O)N[C@H](CCCCNC(C)C)C(=O)N[C@@H](CC(C)C)C(=O)N[C@@H](CCCNC(=N)N)C(=O)N1CCC[C@H]1C(=O)N[C@H](C)C(N)=O` [Ex. 60, N-Ac-D-4-Cl-Phe-D-4-Cl-Phe-D-3-Bal-Ser-N-Tyr-D-Lys(N-epsilon-isopropyl)-Leu-Arg-Pro-D-AlaNH2] (Ac-[dPhe(4-Cl)][dPhe(4-Cl)][dBta]S[NMeY][dLys(iPr)]LRP[dA]-NH2), the Ki is 0.0229 nM.

Take `CC(=O)N[C@H](Cc1ccc(Cl)cc1)C(=O)N[C@H](Cc1ccc(Cl)cc1)C(=O)N[C@H](Cc1cn(C=O)c2ccccc12)C(=O)N[C@@H](CO)C(=O)N(C)[C@@H](Cc1ccc(O)cc1)C(=O)N[C@H](CCCCN)C(=O)N[C@@H](CC(C)C)C(=O)N[C@@H](CCCNC(=N)N)C(=O)N1CCC[C@H]1C(=O)N[C@H](C)C(N)=O` [Ex. 55, N-Ac-D-4-Cl-Phe-D-4-Cl-Phe-D-Trp(formyl)-Ser-N-Me-Tyr-D-Lys-Leu-Arg-Pro-D-AlaNH2] (Ac-[dPhe(4-Cl)][dPhe(4-Cl)][dW](For)S[NMeY][dK]LRP[dA]-NH2): the Ki is 0.0219 nM.

With `CCNC(=O)[C@@H]1CCCN1C(=O)[C@H](CCCN=C(N)N)NC(=O)[C@H](CC(C)C)NC(=O)[C@@H](Cc1c[nH]c2ccccc12)NC(=O)[C@H](Cc1ccc(O)cc1)NC(=O)[C@H](CO)NC(=O)[C@H](Cc1c[nH]c2ccccc12)NC(=O)[C@H](Cc1ccccc1)N(C)C(=O)[C@@H]1CCC(=O)N1` [Ex. 19, (pyro)Glu-N-Me-Phe-Trp-Ser-Tyr-D-Trp-Leu-Arg-ProNHEt] ([pGlu][NMeF]WSY[dW]LRP-NHEt), the Ki is 0.038 nM.

Consider `CC(=O)N(C)CC(=O)N[C@H](Cc1ccc(Cl)cc1)C(=O)N[C@H](Cc1cccc2ccccc12)C(=O)N[C@@H](CO)C(=O)N(C)[C@@H](Cc1ccc(O)cc1)C(=O)N[C@H](Cc1cccnc1)C(=O)N[C@@H](CC(C)C)C(=O)N[C@@H](CCCNC(=N)N)C(=O)N1CCC[C@H]1C(=O)N[C@H](C)C(N)=O` [Ex. 50, N-Ac-Sar-D-4-Cl-Phe-D-1-Nal-Ser-N-Me-Tyr-D-3-Pal-Leu-Arg-Pro-D-AlaNH4] (Ac-[Sar][dPhe(4-Cl)][d1Nal]S[NMeY][d3Pal]LRP[dA]-NH2), for which the Ki is 0.0138 nM.

With `CC(=O)N[C@H](Cc1ccc(Cl)cc1)C(=O)N[C@H](Cc1ccc(Cl)cc1)C(=O)N[C@H](Cc1cccs1)C(=O)N[C@@H](CO)C(=O)N[C@@H](Cc1ccc(O)cc1)C(=O)N[C@H](CCCCN)C(=O)N[C@@H](CC(C)C)C(=O)N[C@@H](CCCNC(=N)N)C(=O)N1CCC[C@H]1C(=O)N(C)CC(N)=O` [Ex. 58, N-Ac-D-4-Cl-Phe-D-4-Cl-Phe-D-2-Thia-Ser-Tyr-D-Lys-Leu-Arg-Pro-SarNH2] (Ac-[dPhe(4-Cl)][dPhe(4-Cl)][d2Thi]SY[dK]LRP[Sar]-NH2), the Ki was 0.00871 nM.

As for `CC(=O)N[C@H](Cc1ccc(Cl)cc1)C(=O)N[C@H](Cc1ccc(Cl)cc1)C(=O)N[C@H](Cc1cccs1)C(=O)N[C@@H](CO)C(=O)N(C)[C@@H](Cc1ccc(O)cc1)C(=O)N[C@H](CCCCN)C(=O)N[C@@H](CC(C)C)C(=O)N[C@@H](CCCNC(=N)N)C(=O)N1CCC[C@H]1C(=O)N[C@H](C)C(N)=O` [Ex. 39, N-Ac-D-4-Cl-Phe-D-4-Cl-Phe-D-2-Thia-Ser-N-Me-Tyr-D-Lys-Leu-Arg-Pro-D-AlaNH2] (Ac-[dPhe(4-Cl)][dPhe(4-Cl)][d2Thi]S[NMeY][dK]LRP[dA]-NH2), the Ki is 0.0355 nM.

Consider `CC(=O)N[C@H](Cc1ccc(Cl)cc1)C(=O)N[C@H](Cc1ccc(Cl)cc1)C(=O)N(C)[C@H](Cc1cccc2ccccc12)C(=O)N[C@@H](CO)C(=O)N(C)[C@@H](Cc1ccc(O)cc1)C(=O)N[C@H](CCCCN)C(=O)N[C@@H](CC(C)C)C(=O)N[C@@H](CCCNC(=N)N)C(=O)N1CCC[C@H]1C(=O)N[C@H](C)C(N)=O` [Ex. 56, N-Ac-D-4-Cl-Phe-D-4-Cl-Phe-N-Me-D-1-Nal-Ser-N-Me-Tyr-D-Lys-Leu-Arg-Pro-D-AlaNH2] (Ac-[dPhe(4-Cl)][dPhe(4-Cl)][dNMe1Nal]S[NMeY][dK]LRP[dA]-NH2), for which the Ki was 0.676 nM.

Consider `CC(=O)N[C@H](Cc1ccc(Cl)cc1)C(=O)N[C@H](Cc1ccc(Cl)cc1)C(=O)N[C@H](Cc1cccs1)C(=O)N[C@@H](CO)C(=O)N(C)[C@@H](Cc1ccc(O)cc1)C(=O)N[C@H](CCCCNC(=O)c1cccnc1)C(=O)N(C)[C@@H](CC(C)C)C(=O)N[C@@H](CCCNC(=N)N)C(=O)N1CCC[C@H]1C(=O)N[C@H](C)C(N)=O` [Ex. 68, N-Ac-D-4-Cl-Phe-D-4-Cl-Phe-D-2-Thia-Ser-N-Me-Tyr-D-Lys(N-epsilon-nicotinyl)-N-Me-Leu-Arg-Pro-D-Ala-NH2] (Ac-[dPhe(4-Cl)][dPhe(4-Cl)][d2Thi]S[NMeY][dK](Nicotinoyl)[NMeL]RP[dA]-NH2), for which the Ki is 0.12 nM.

For `CC(=O)N[C@H](Cc1ccc(Cl)cc1)C(=O)N[C@H](Cc1ccc(Cl)cc1)C(=O)N[C@H](Cc1cccc2ccccc12)C(=O)N[C@@H](CO)C(=O)N(C)[C@@H](Cc1ccc(O)cc1)C(=O)N[C@H](CCCCNC(N)=O)C(=O)N[C@@H](CC(C)C)C(=O)N[C@@H](CCCNC(=N)N)C(=O)N1CCC[C@H]1C(=O)N[C@H](C)C(N)=O` [Ex. 59, N-Ac-D-4-Cl-Phe-D-4-Cl-Phe-D-1-Nal-Ser-N-Me-Tyr-D-H-Cit-Leu-Arg-Pro-D-AlaNH2] (Ac-[dPhe(4-Cl)][dPhe(4-Cl)][d1Nal]S[NMeY][d(hCit)]LRP[dA]-NH2), the Ki is 0.0977 nM.

Regarding `CCNC(=O)[C@@H]1CCCN1C(=O)[C@H](CCCN=C(N)N)N(C)C(=O)[C@H](CC(C)C)NC(=O)[C@@H](Cc1c[nH]c2ccccc12)NC(=O)[C@H](Cc1ccc(O)cc1)NC(=O)[C@H](CO)NC(=O)[C@H](Cc1c[nH]c2ccccc12)NC(=O)[C@H](Cc1cnc[nH]1)NC(=O)[C@@H]1CCC(=O)N1` [Ex. 23, (pyro)Glu-His-Trp-Ser-Tyr-D-Trp-Leu-N-Me-Arg-ProNHEt], the Ki is 0.0562 nM.

Regarding `CC(=O)N(C)CC(=O)N[C@H](Cc1ccc(Cl)cc1)C(=O)N[C@H](Cc1csc2ccccc12)C(=O)N[C@@H](CO)C(=O)N(C)[C@@H](Cc1ccc(O)cc1)C(=O)N[C@H](CCCCNC(=O)c1cccnc1)C(=O)N[C@@H](CC(C)C)C(=O)N[C@@H](CCCCNC(C)C)C(=O)N1CCC[C@H]1C(=O)N[C@H](C)C(N)=O` [Ex. 64, N-Ac-Sar-D-4-Cl-Phe-D-3-Bal-Ser-N-Me-Tyr-D-Lys(N-epsilon-nicotinyl)-Leu-Lys(N-epsilon-isopropyl)-Pro-D-Ala-NH2] (Ac-[Sar][dPhe(4-Cl)][dBta]S[NMeY][dK](Nicotinoyl)L[Lys(iPr)]P[dA]-NH2), the Ki was 0.0102 nM.

As to `CC(=O)N(C)CC(=O)N[C@H](Cc1ccc(Cl)cc1)C(=O)N[C@H](Cc1cccc2ccccc12)C(=O)N[C@@H](CO)C(=O)N(C)[C@@H](Cc1ccc(O)cc1)C(=O)N[C@H](CCCCN)C(=O)N[C@@H](CC(C)C)C(=O)N[C@@H](CCCNC(=N)N)C(=O)N1CCC[C@H]1C(=O)N[C@H](C)C(N)=O` [Ex. 48, N-Ac-Sar-D-4-Cl-Phe-D-1-Nal-Ser-N-Me-Tyr-D-Lys-Leu-Arg-Pro-D-AlaNH2] (Ac-[Sar][dPhe(4-Cl)][d1Nal]S[NMeY][dK]LRP[dA]-NH2), the Ki was 0.01 nM.

For the compound `CC(=O)N(C)CC(=O)N[C@H](Cc1ccc(Cl)cc1)C(=O)N[C@H](Cc1cccs1)C(=O)N[C@@H](CO)C(=O)N(C)[C@@H](Cc1ccc(O)cc1)C(=O)N[C@H](CCCCN)C(=O)N[C@@H](CC(C)C)C(=O)N[C@@H](CCCNC(=N)N)C(=O)N1CCC[C@H]1C(=O)N[C@H](C)C(N)=O` [Ex. 49, N-Ac-Sar-D-4-Cl-Phe-D-2-Thia-Ser-N-Me-Tyr-D-Lys-Leu-Arg-Pro-D-AlaNH2] (Ac-[Sar][dPhe(4-Cl)][d2Thi]S[NMeY][dK]LRP[dA]-NH2), the Ki was 0.0316 nM.

In the case of `CC(=O)N[C@H](Cc1ccc(Cl)cc1)C(=O)N[C@H](Cc1ccc(Cl)cc1)C(=O)N[C@H](Cc1cccc2ccccc12)C(=O)N[C@@H](CO)C(=O)N(C)[C@@H](Cc1ccc(O)cc1)C(=O)N[C@H](CCCCN)C(=O)N[C@@H](CC1CCCCC1)C(=O)N[C@@H](CCCNC(=N)N)C(=O)N1CCC[C@H]1C(=O)N[C@H](C)C(N)=O` [Ex. 47, N-Ac-D-4-Cl-Phe-D-4-Cl-Phe-D-1-Nal-Ser-N-Me-Tyr-D-Lys-Cha-Arg-Pro-D-AlaNH2] (Ac-[dPhe(4-Cl)][dPhe(4-Cl)][d1Nal]S[NMeY][dK][Cha]RP[dA]-NH2), the Ki is 0.038 nM.

Regarding `CC(=O)N[C@H](Cc1ccc2ccccc2c1)C(=O)N[C@H](Cc1ccc(Cl)cc1)C(=O)N[C@H](Cc1cccnc1)C(=O)N[C@@H](CO)C(=O)N(C)[C@@H](Cc1ccc(O)cc1)C(=O)N[C@H](Cc1cccnc1)C(=O)N[C@@H](CC(C)C)C(=O)N[C@@H](CCCCNC(C)C)C(=O)N1CCC[C@H]1C(=O)N[C@H](C)C(N)=O` [Ex. 61, N-Ac-D-2-Nal-D-4-Cl-Phe-D-3-Pal-Ser-N-Me-Tyr-D-3-Pal-Leu-Lys(N-epsilon-isopropyl)-Pro-D-AlaNH2] (Ac-[d2Nal][dPhe(4-Cl)][d3Pal]S[NMeY][d3Pal]L[Lys(iPr)]P[dA]-NH2), the Ki is 0.049 nM.

For the origin of these results see US5110904A (Abbott Laboratories, priority 1990, dated 1992).
